Earlier results on 1 compound are cited in patent publication US11434243B2, “Triazoloquinazolinone synthesis” (priority 2017, dated 2022).

Molecules are shown by their SMILES.

Series [1] has as its system benzodiazepine site of the GABAA receptor complex.
The conditions of series [2]: qualitative; complicates purification.

`Cc1ccc(-n2nc3c4cc(Cc5ccccc5)ccc4[nH]c(=O)n3c2=O)cc1` [Compound 12, 9-benzyl-2-(4-methylphenyl)-2,6-dihydro[1,2,4]triazolo[4,3-c]quinazoline-3,5-dione]: the “potency relative to diazepam in displacing 3H-Flumazenil” value in series [1] (fold more potent than diazepam) is on record as 10 times. Also, in series [1] (rat membrane preparations, result in words), the “inhibition of the binding of 3H-Flumazenil to the benzodiazepine site of the GABAA receptor complex” value is on record as “very potent inhibitor”. Further, in series [1] (result in words), the “selectivity for the GABAA receptor complex” value is on record as “selective for the GABAA receptor complex”. For the same compound, the solubility result in series [2] is recorded as “low solubility”.
